This passage reports IC50 results from patent US11957671B2, “Benzodioxane modulators of leukotriene A4 hydrolase (LTA4H) for prevention and treatment of aging-associated diseases” (Alkahest, Inc., priority 2021, dated 2024).

The target in one assay is human LTA4 hydrolase (Homo sapiens (Human), UniProt P09960). The assay is described as follows: LTA4H Enzyme assay (cleavage of Arg-AMC). It counts as biochemical. Conditions: LTA4H 1 nM, Arg-AMC 50 μM, room temperature 1 h. The protocol: The compounds of the invention are assessed for the ability to interact with human LTA4 hydrolase in an enzymatic assay that measures the ability of the enzyme to cleave the peptide bond of arginyl-aminomethylcoumarin (Arg-AMC). LTA4H Enzyme (1 nM final), Arg-AMC substrate (50 μM final), and compound are combined in a reaction buffer (50 mM Tris-HCl (pH 7.5), 100 mM KCl, 0.5% bovine serum albumin) at room temperature for 1 h. The formation of product is assessed by measuring the fluorescence of aminomethylcoumarin product (excitation wavelength 380 nm/emission wavelength 460 nm).
Chain of human LTA4 hydrolase (P09960 whole entry): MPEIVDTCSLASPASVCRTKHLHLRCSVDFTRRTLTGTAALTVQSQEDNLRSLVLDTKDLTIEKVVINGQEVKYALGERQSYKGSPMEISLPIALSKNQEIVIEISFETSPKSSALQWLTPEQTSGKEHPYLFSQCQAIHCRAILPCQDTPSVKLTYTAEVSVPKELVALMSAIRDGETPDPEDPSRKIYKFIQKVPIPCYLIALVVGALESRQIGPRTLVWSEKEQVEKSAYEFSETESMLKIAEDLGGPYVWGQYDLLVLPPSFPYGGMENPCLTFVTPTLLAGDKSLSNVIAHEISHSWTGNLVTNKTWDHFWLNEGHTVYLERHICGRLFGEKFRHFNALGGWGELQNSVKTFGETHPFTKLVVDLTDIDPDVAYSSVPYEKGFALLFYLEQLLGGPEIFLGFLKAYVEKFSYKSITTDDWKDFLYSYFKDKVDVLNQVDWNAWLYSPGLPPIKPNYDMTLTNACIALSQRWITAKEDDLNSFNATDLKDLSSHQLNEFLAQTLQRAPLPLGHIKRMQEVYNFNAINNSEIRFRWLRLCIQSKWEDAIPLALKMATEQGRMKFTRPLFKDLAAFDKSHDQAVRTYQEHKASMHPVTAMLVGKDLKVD
For `CC(=O)N1CCC(N(C)Cc2ccc([C@H]3COc4ccccc4O3)cc2)CC1` [Example 14], inhibition was half-maximal at 2.32 nM (IC50).
Still for that read-out and setting: as for `c1cnc2c(c1)OCC(c1ccc(CN3CCCC3)cc1)O2` (stereo not shown) [Example 15, 3-[4-(pyrrolidin-1-ylmethyl)phenyl]-2,3-dihydro[1,4]dioxin[2,3-b]pyridine], the figure is 0.77 nM.
Same read-out and setting: then `c1ccc2c(c1)OCC(c1ccc(CN3CCn4cnnc4C3)cc1)O2` (stereo not shown) [Example 16, 7-[4-(2,3-dihydro-1,4-benzodioxin-2-yl)benzyl]-5,6,7,8-tetrahydro[1,2,4,]triazolo[4,3-a]pyrazine], with 1.14 nM; and `O=S1(=O)CCN(Cc2ccc(C3COc4cccnc4O3)cc2)CC1` (stereo not shown) [Example 17, 3-{4-[(1,1-dioxidothiomorpholin-4-yl)methyl]phenyl}-2,3-dihydro[1,4]dioxino[2,3-b]pyridine], with 0.73 nM; and `c1ccc2c(c1)OC[C@@H](c1ccc(CN3CCOCC3)cc1)O2` [Example 199, 4-{4-[(2R)-2,3-dihydro-1,4-benzodioxin-2-yl]benzyl}morpholine], with 40.1 nM.

Another assay has as its system synthesis of LTB4 in human whole blood. Briefly: human whole blood (HWB) assay, LTB4 production inhibition. It counts as cell-based. Particulars: calcimycin 20 μM. The protocol: The compounds of the invention are additionally tested in a human whole blood (HWB) assay to determine their ability to inhibit the synthesis of LTB4 in a cellular system. Compounds are combined with heparinized human whole blood and incubated for 15 minutes at 37° C. Calcimycin (20 μM final, prepared in phosphate-buffered saline, pH 7.4) is then added and the mixture is incubated for another 30 minutes at 37° C. The samples are centrifuged for 5 min at low speed (1500×g) and the plasma layer is removed. Plasma LTB4 concentrations are then measured using an antibody-based homogenous time-resolved fluorescence method (CisBio, Bedford, Mass.). In general, the preferred potency range (IC50) of compounds in the HWB assay is between 10 nM to 10 μM, the more preferred potency range is 10 nM to 1 μM, and the most preferred potency range is 10 nM to 100 nM.
Consider `CC(=O)N1CCC(N(C)Cc2ccc([C@H]3COc4ccccc4O3)cc2)CC1` [Example 14], for which the IC50 (in general, the midpoint of a concentration-inhibition curve) is 155 nM.
On to `CC(=O)NC1CCN(Cc2ccc([C@H]3COc4cccnc4O3)cc2)CC1` [Example 160, N-(1-{4-[(3S)-2,3-dihydro[1,4]dioxino[2,3-b]pyridin-3-yl)benzyl}piperidin-4-yl)acetamide], for which the IC50 stood at 28 nM.
On the same count and under the same terms, as for `COC1CCN(Cc2ccc([C@H]3COc4cccnc4O3)cc2)C1` (stereo partly drawn) [Example 168, (3S)-3-{4-[(3-methoxypyrrolidin-1-yl)methyl]phenyl}-2,3-dihydro[1,4]dioxino[2,3-b]pyridine], the figure is 39 nM; as for `c1cnc2c(c1)OC[C@H](c1ccc(CNC3CCC3)cc1)O2` [Example 173, N-{4-[(3S)-2,3-dihydro[1,4]dioxino[2,3-b]pyridin-3-yl]benzyl}cyclobutanamine], 72.8 nM; as for `NC(=O)NC1CCN(Cc2ccc([C@H]3COc4ccccc4O3)cc2)CC1` [Example 175, 1-(1-{4-[(2S)-2,3-dihydro-1,4-benzodioxin-2-yl]benzyl}piperidin-4-yl)urea], 72.6 nM.
The same measure, in the same setting: then `CC(=O)NC1CCN(Cc2ccc([C@H]3COc4ccccc4O3)cc2)CC1` [Example 178, N-(1-(4-[(2S)-2,3-dihydro-1,4-benzodioxin-2-yl]benzyl}piperidin-4-yl)acetamide], with 160 nM; and `O=C(O)C[C@@H]1CCCN(Cc2ccc([C@H]3COc4ccccc4O3)cc2)C1` [Example 183, [(3S)-1-{4-[(2S)-2,3-dihydro-1,4-benzodioxin-2-yl]benzyl)piperidin-3-yl]acetic acid], with 151 nM; and `CC(=O)N1CCN(Cc2ccc([C@H]3COc4cccnc4O3)cc2)CC1` [Example 185, 1-(4-{4-[(3S)-2,3-dihydro[1,4]dioxino[2,3-b]pyridin-3-yl]benzyl}piperazin-1-yl)ethanone], with 92.3 nM.
Still for that read-out and setting: as for `OC1CCN(Cc2ccc([C@H]3COc4cccnc4O3)cc2)CC1` [Example 186, 1-{4-[(3S)-2,3-dihydro[1,4]dioxino[2,3-b]pyridin-3-yl]benzyl}piperidin-4-ol], the figure is 36.5 nM; as for `NC(=O)NC1CCN(Cc2ccc([C@H]3COc4cccnc4O3)cc2)CC1` [Example 187, 1-(1-{4-[(3S)-2,3-dihydro[1,4]dioxino[2,3-b]pyridin-3-yl]benzyl}piperidin-4-yl)urea], 177 nM; as for `CS(=O)(=O)NC1CCN(Cc2ccc([C@H]3COc4cccnc4O3)cc2)CC1` [Example 190, N-(1-{4-[(3S)-2,3-dihydro[1,4]dioxino[2,3-b]pyridin-3-yl]benzyl}piperidin-4-yl)methanesulfonamide], 26 nM.
`c1ccc2c(c1)OCC(c1ccc(CN3CCCC3)cc1)O2` (stereo not shown) [Example 200, 1-[4-(2,3-dihydro-1,4-benzodioxin-2-yl)benzyl]pyrrolidine]: the half-inhibitory concentration (IC50) amounted to 83 nM.
On the same count and under the same terms, as for `c1cnc2c(c1)OC[C@H](c1ccc(CN3CCOCC3)cc1)O2` [Example 204, (3S)-3-[4-(morpholin-4-ylmethyl)phenyl]-2,3-dihydro[1,4]dioxino[2,3-b]pyridine], the figure is 95 nM; as for `O=C(O)[C@@H]1CCN(Cc2ccc([C@H]3COc4ccccc4O3)cc2)C1` [Example 214, (3R)-1-{4-[(2S)-2,3-dihydro-1,4-benzodioxin-2-yl]benzyl}pyrrolidine-3-carboxylic acid], 169 nM; as for `COCC(=O)NC1CCN(Cc2ccc([C@H]3COc4ccccc4O3)cc2)CC1` [Example 219, N-(1-{4-[(2S)-2,3-dihydro-1,4-benzodioxin-2-yl]benzyl}piperidin-4-yl)-2-methoxyacetamide], 149 nM.
The same measure, in the same setting: then `CC(C)(O)C(=O)NC1CCN(Cc2ccc([C@H]3COc4ccccc4O3)cc2)CC1` [Example 220, N-(1-{4-[(2S)-2,3-dihydro-1,4-benzodioxin-2-yl]benzyl}piperidin-4-yl)-2-hydroxy-2-methylpropanamide], with 91.3 nM; and `CC(c1ccc([C@H]2COc3ccccc3O2)cc1)N1CCC(C(=O)O)CC1` (stereo partly drawn) [Example 227, 1-(1-{4-[(2S)-2,3-dihydro-1,4-benzodioxin-2-yl]phenyl}ethyl)piperidine-4-carboxylic acid], with 307 nM; and `CC(C)(C(=O)O)C1CCN(Cc2ccc([C@H]3COc4ccccc4O3)cc2)CC1` [Example 229, 2-(1-{4-[(2S)-2,3-dihydro-1,4-benzodioxin-2-yl]benzyl}piperidin-4-yl)-2-methylpropanoic acid], with 290 nM.
The same measure, in the same setting: as for `O=C(O)c1ccc(CC2CCN(Cc3ccc([C@H]4COc5cccnc5O4)cc3)CC2)cc1` [Example 234, 4-[(1-{4-[(3S)-2,3-dihydro[1,4]dioxino[2,3-b]pyridin-3-yl]benzyl}piperidin-4-yl)methyl]benzoic acid], the figure is 94.8 nM.
For `CCCCN(Cc1ccc(C(=O)O)cc1)Cc1ccc([C@H]2COc3ccccc3O2)cc1` [Example 237], the half-inhibitory concentration (IC50) stood at 94.5 nM.
